Assay results as given in patent publication US12037419B2 (The Feinstein Institutes for Medical Research, priority 2016, dated 2024).

Columns and labels:
human monocytes [1] = test: Internalization of FITC-labeled HMGB1 or CpG by monocytes (immunofluorescence microscopy); format: cell-based
Protocol: Immunofluorescence Microscopy: In situ proximal ligation assay was performed according to manufacturer's protocol (Duolink, Sigma). Following stimulation, human monocytes were washed three times with ice-cold PBS and were fixed with 4% (wt/vol) PFA for 1 hour at room temperature, seeded (2×10^5 cells) on slides using cytospin (Shandon), permeablized with chilled MeOH for 4 min and with PBS/0.1% (vol/vol) Triton X-100 and blocked for 1 h at room temperature. Cells were then incubated overnight with a primary antibody pair directed to rabbit anti-RAGE (ab3611, Abcam) and to mouse anti-LAIR-1 (BD Bioscience), respectively. The cells were incubated with corresponding PLA probes conjugated to oligonucleotides (mouse MINUS and rabbit PLUS), then followed by ligation and rolling circle amplification in close proximity. Images were acquired using AxioVision software and a confocal microscope (Olympus). Quantification was performed using Zen2 (Zeiss). […] Cells were washed three times with cold-PBS and fixed with 4% PFA and stained with PECy5-anti-human CD14 antibody (BD biosciences) or propidium iodide (PI). […] PI or DAPI was used for nuclear staining. […] After washing, cells were stained with Alexa Fluor 594 anti-rabbit IgG (Life Technologies), and mounted DAPI-containing medium. […]

[2] = tested on: RAGE, LAIR-1, SHP-1, NF-κB signaling pathway; test: Immunoprecipitation, Western blot, phospho-immunoreceptor array and p65 nuclear translocation in monocytes; format: cell-based, human
Protocol: Immunofluorescence Microscopy: In situ proximal ligation assay was performed according to manufacturer's protocol (Duolink, Sigma). Following stimulation, human monocytes were washed three times with ice-cold PBS and were fixed with 4% (wt/vol) PFA for 1 hour at room temperature, seeded (2×10^5 cells) on slides using cytospin (Shandon), permeablized with chilled MeOH for 4 min and with PBS/0.1% (vol/vol) Triton X-100 and blocked for 1 h at room temperature. Cells were then incubated overnight with a primary antibody pair directed to rabbit anti-RAGE (ab3611, Abcam) and to mouse anti-LAIR-1 (BD Bioscience), respectively. The cells were incubated with corresponding PLA probes conjugated to oligonucleotides (mouse MINUS and rabbit PLUS), then followed by ligation and rolling circle amplification in close proximity. Images were acquired using AxioVision software and a confocal microscope (Olympus). Quantification was performed using Zen2 (Zeiss). […] Cells were washed three times with cold-PBS and fixed with 4% PFA and stained with PECy5-anti-human CD14 antibody (BD biosciences) or propidium iodide (PI). […] PI or DAPI was used for nuclear staining. […] After washing, cells were stained with Alexa Fluor 594 anti-rabbit IgG (Life Technologies), and mounted DAPI-containing medium. Images were acquired using an AxioImage Z1 (Zeiss) apotome enabled (Zeiss) Fluorescent-intensity analysis of the images was performed using Zen2 (Zeiss).
Immunoprecipitation and Western blot. Total protein extracts were prepared as described (22). Monocytes (2-5×10^6 cells/ml) were washed in ice-cold PBS and lysed in 1×RIPA buffer containing complete protease inhibitor mixture (Roche) and phosphatase inhibitor (Pierce) for 1 h on ice. For immunoprecipitation, anti-LAIR-1 antibody (BD Bioscience) or anti-RAGE antibody (Abcam) was incubated with the lysate overnight at 4° C. prior to being incubated with protein G-dynabeads (Life Technologies). Proteins were then separated by SDS-PAGE, transferred to nitrocellulose or PVDF membranes, and immunoblotted with appropriate antibodies. Bands were detected using the ECL reagent (Thermo Scientific) or using the Odyssey Infrared Imaging system (LI-COR) to detect secondary antibodies conjugated with Infrared 680 or 800.
Phospho-immunoreceptor array: Tyrosine phosphorylated LAIR-1 was determined by human phosphoimmunoreceptor array (Proteome Profiler Array; R&D systems) according to the manufacturer's protocol and as described (22). Phosphorylation levels of individual analytes were determined by average pixel density of duplicate spots; values were obtained after subtraction of background and were normalized to positive control spots.

human monocytes [3] = test: Induction of anti-inflammatory molecules / M2-like phenotype (Mer, PDL-1, IL-10, CD163) in monocytes; format: cell-based
Protocol: Monocyte isolation and stimulation: Human PBMCs were obtained following institutional guidelines of the Feinstein Institute for Medical Research (Feinstein) and isolated from blood of healthy donors by density centrifugation (New York Blood Bank). Monocytes were negatively enriched using a human monocyte enrichment kit (Stem Cell Technology). Purity of monocytes (≥90% CD11b+CD14+LAIR-1+) was determined by flow cytometry. […] Splenic murine monocytes from wild type mice, RAGE deficient or LAIR-1 conditional knockout mice were isolated using EasySep mouse monocyte enrichment kit (Stem Cell Technology). C57BL/6 mice, Lysozyme2-Cre transgenic mice were purchased from Jackson Laboratory. Myeloid specific LAIR-1 conditional knockout mice (Lysozyme2-Cre×LAIR fl/fl) were bred and maintained in our facility (Feinstein) under specific pathogen-free conditions. RAGE deficient mice (Department of Medicine, Karolinska Institute Stockholm, Sweden) were maintained at Feinstein. Eight-to ten weeks old male mice were used for experiments. All animal procedures were approved by the Feinstein Institutional Animal Care and Use Committee.
RT-PCR analysis and primers: Total RNA was extracted from cells (1-2×10^6 cells per sample) with an RNeasy kit (Qiagen, Venlo, Limburg, Netherlands) and cDNA was generated using an iScript cDNA synthesis kit (Bio-Rad laboratories). […] The relative induction was calculated by 2-ΔΔCt.
Cytokine analysis: Cytokine levels were measured using a Human Proinflammatory 7-plex assay following the manufacturer's protocols (Meso Scale Discovery (MSD). MSD plates were analyzed on the MS2400 imager (MSD). All standards and samples were run in duplicates.
Flow cytometry: Cells were suspended in staining buffer containing 2% BSA and incubated with Fc block (Miltenyi Biotec) for 15 min on ice. […] Events were acquired using either an LSRII or Fortessa cell analyzer (BD Biosciences), and data were analyzed using FlowJo (Tree star).

human monocytes [4] = test: SeaHorse cellular flux assay (OCR, ECAR); format: cell-based; details: C1q 25 μg ml-1 together with HMGB1 3 μg/ml, 24 h
Protocol: Cell metabolism analysis using SeaHorse Cellular Flux assay. […] One hour prior to measurement, culture medium was exchanged for assay medium (unbuffered DMEM (Sigma), supplemented with 10 mM Glucose, 1 mM Pyruvate and 2 mM Glutamine for mitochondrial assays, or with 2 mM Glutamine alone for glycolytic assays. Reagents were injected during the measurement to achieve final concentrations of oligomycin (1 μM), carbonyl cyanide p-(trifluoromethoxy) phenylhydrazone (FCCP) ([…]), Rotenone/antimycin A (0.5 μM). Glucose (10 mM), and 2-Deoxy-D glucose (50 mM). Oxygen consumption rate (OCR) and Extracellular acidification rate (ECAR) values were measured using a SeaHorse XfP instrument (SeaHorse bioscience). Measured values were normalized to the number of live cells present in each well as determined by a trypan blue staining by the end of each run. For OCR/ECAR ratio calculations, an average of the last two basal readings was used for both OCR and ECAR.

C1q: C1q purified from pooled normal human sera, obtained from Complement Technology
internalization of FITC-labeled CpG oligonucleotides (human monocytes [1]; 15 min): significantly reduced cellular internalization | cytosolic FITC-HMGB1 (internalization) (human monocytes [1]; FITC-HMGB1 3 μg/ml, C1q 25 μg ml-1, 15 min, 37° C.): significantly decreased | phosphorylation of LAIR-1 [2]: induces phosphorylation of LAIR-1 | HMGB1-induced activation and nuclear translocation of NF-κB ([2]; P-IKKα, p65, 1 h): inhibited the downstream activation and nuclear translocation of NF-κB | recruitment of SHP-1 to LAIR-1 ([2]; both HMGB1 and C1q present): more SHP-1 is recruited to LAIR-1 | HMGB1-induced phosphorylation of RAGE ([2]; in the presence of C1q): diminished | potency of physiologic C1q levels versus SLE levels (25-50 μg/ml) for Mer, PDL-1, IL-10, CD163 mRNA (human monocytes [3]; C1q 10, 25, 50 or 75 μg/ml with HMGB1, 24 h): more potent | transcription and protein expression of anti-inflammatory factors (Mer, PDL-1, IL-10, CD163) (human monocytes [3]; together with HMGB1 3 μg/ml, C1q 25 μg/ml or C1q tail 53 μg/ml, 24 h): induced the transcription and protein expression of a variety of anti-inflammatory factors | HMGB1-induced alteration in cellular metabolism (human monocytes [4]): prevented the alteration in cellular metabolism
